Laboratory results published in US20230416221A1, “DIHYDROISOQUINOLINONE AND ISOINDOLINONE DERIVATIVES AND USES THEREOF” (HEFEI INSTITUTES OF PHYSICAL SCIENCE, CHINESE ACADEMY OF …, priority 2020, published 2023).
Where two headings read alike, the source gives them in different places.

How the values were obtained:
[1] = system: acute myeloid leukemia cell line MOLM13; test: Growth of cancer cells, Cell Titer-Glo GI50, MOLM13; format: cell-based; settings: incubated for 72 hours, Cell Titer-Glo
[2] = system: human liver cancer cell line HepG2; test: Growth of cancer cells, Cell Titer-Glo GI50, HepG2; format: cell-based; settings: incubated for 72 hours
[3] = system: acute myeloid leukemia cell line MV4-11; test: Growth of cancer cells, Cell Titer-Glo GI50, MV4-11; settings: read-out: GI50 MV4-11
[4] = system: acute myeloid leukemia cell line MOLM14; test: Growth of cancer cells, Cell Titer-Glo GI50, MOLM14; format: cell-based; settings: incubated for 72 hours, Cell Titer-Glo, read-out: GI50 MOLM 14
[5] = system: HepG2 drug resistant strain HepG2 CDK9 KI C20-1; test: Growth of drug resistant strain HepG2 KI C20-1, Cell Titer-Glo GI50; format: cell-based, human; settings: for GI50 HepG2 CDK9 KI C20-1: CDK9 resistant mutation knockin HepG2 monoclone, 72 hours, Cell Titer-Glo
[6] = system: MOLM13 drug resistant strain MOLM13 BR1; test: Growth of drug resistant strain MOLM13 BR1, Cell Titer-Glo GI50; format: cell-based; settings: Homo sapiens, MOLM-13, BAY1251152-resistant MOLM13 strain, 72 hours
[7] = system: human chronic myeloid leukemia cell K562; test: Growth of cancer cells, Cell Titer-Glo GI50, K562; format: cell-based; settings: incubated for 72 hours, Cell Titer-Glo, read-out: GI50 K562
[8] = system: human colorectal cancer cell DLD1; test: Growth of cancer cells, Cell Titer-Glo GI50, DLD1; format: cell-based
[9] = system: human colorectal cancer cell HCT116; test: Growth of cancer cells, Cell Titer-Glo GI50, HCT116; format: cell-based
[10] = molecular target: CDK9-L156F mut/CyclinT1 mutant protein (Homo sapiens (Human), UniProt P50750, L156F); test: Enzyme activity assay of CDK9 mutant protein inhibition in vitro, CDK9-L156F mut/CyclinT1
Sequence of CDK9-L156F mut/CyclinT1 mutant protein (P50750 whole entry L156F): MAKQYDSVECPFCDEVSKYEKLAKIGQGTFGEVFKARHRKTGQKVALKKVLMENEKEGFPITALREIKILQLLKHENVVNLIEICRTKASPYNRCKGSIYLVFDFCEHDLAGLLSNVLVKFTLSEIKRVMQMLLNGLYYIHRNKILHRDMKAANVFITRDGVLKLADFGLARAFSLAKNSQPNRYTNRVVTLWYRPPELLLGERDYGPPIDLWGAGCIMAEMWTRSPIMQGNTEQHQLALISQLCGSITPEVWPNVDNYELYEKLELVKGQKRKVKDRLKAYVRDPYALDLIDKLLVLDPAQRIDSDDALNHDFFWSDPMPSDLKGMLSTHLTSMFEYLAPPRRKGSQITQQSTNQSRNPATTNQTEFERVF
Sequence of CDK9-L156F mut/CyclinT1 mutant protein (O60563 whole entry partner): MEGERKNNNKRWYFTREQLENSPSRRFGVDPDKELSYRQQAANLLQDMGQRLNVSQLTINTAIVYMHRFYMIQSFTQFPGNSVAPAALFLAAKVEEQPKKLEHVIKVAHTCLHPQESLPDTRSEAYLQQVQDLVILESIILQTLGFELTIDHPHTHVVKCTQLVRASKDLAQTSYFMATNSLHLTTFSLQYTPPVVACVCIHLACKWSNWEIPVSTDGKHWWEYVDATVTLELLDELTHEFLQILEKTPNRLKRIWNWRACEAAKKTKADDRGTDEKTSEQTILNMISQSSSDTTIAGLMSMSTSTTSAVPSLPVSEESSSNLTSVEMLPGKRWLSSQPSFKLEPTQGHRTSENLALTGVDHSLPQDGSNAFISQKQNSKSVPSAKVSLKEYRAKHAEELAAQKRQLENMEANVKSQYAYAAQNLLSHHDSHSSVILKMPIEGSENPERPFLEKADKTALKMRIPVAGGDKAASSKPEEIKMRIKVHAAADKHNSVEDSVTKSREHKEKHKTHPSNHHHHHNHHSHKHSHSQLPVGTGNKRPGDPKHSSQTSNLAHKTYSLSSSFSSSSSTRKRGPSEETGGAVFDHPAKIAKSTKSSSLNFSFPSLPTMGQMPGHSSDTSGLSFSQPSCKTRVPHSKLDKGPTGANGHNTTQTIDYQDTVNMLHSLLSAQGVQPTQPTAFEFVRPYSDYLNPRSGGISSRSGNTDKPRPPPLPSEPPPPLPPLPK

[11] = system: acute myeloid leukemia cell line OCI-AML-3; test: Growth of cancer cells, Cell Titer-Glo GI50, OCI-AML-3; format: cell-based; settings: Homo sapiens; incubated for 72 hours, Cell Titer-Glo; read-out: GI50 AML3
[12] = system: human ovarian granulosa tumor cell COV434; test: Growth of cancer cells, Cell Titer-Glo GI50, COV434; format: cell-based; settings: read-out: GI50 COV434
CDK9 = CDK9 (Homo sapiens (Human), UniProt P50750); test: Binding activity of compound and CDK9, split luciferase system (C37-CL / CDK9-NL) in HEK-293T cells; format: cell-based
Sequence of CDK9 (P50750 whole entry, the tested form may be a part): as the sequence (P50750 whole entry L156F) above, with F156L counted along it
Text: The plasmid of split luciferase system was constructed by molecular cloning technology. The N-terminal domain (NLuc) and C-terminal domain (CLuc) of luciferase were respectively cloned and inserted into the vector PCDNA3 to construct NLuc-PCDNA3 and CLuc-PCDNA3 vectors, and the polyclonal sites were reserved at both ends of the sequence. Then CDC37 and CDK9 were cloned into the corresponding vectors to construct C37-CL and CDK9-NL vectors. C37-CL plasmid sequence is shown in SEQ ID NO. 1. CDK9-NL plasmid sequence is shown in SEQ ID NO. 2.
The mixed transfection complex was added to the 10 cm cell culture dish and cultured at 37° C. and 5% CO2 for 24 hours. […] After counting, the transfected cells were placed in a 96-well white Corning cell culture plate (purchased from Corning, U.S.) with 100 μL, 5000 cells/well. After 12 hours, the medium was removed from the 96-well plate and 100 μL culture medium containing corresponding concentration of the testing compound was added, which was cultured continuously for 12 hours. After 12 hours, 20 μL Luciferase-Glo (purchased from Promega, U.S.) testing reagent was added to each well. After mixing, the […] value was detected using a microplate reader.

[13] = system: histiocytic lymphoma U-937; test: Growth of cancer cells, Cell Titer-Glo GI50, U937; format: cell-based; settings: Homo sapiens, U-937; incubated for 72 hours, Cell Titer-Glo; read-out: GI50 U937
CDK9/CyclinT1 protein = CDK9/CyclinT1 protein (Homo sapiens (Human), UniProt P50750); test: Enzyme activity assay of CDK9 protein inhibition in vitro, CDK9/CyclinT1
Sequence of CDK9/CyclinT1 protein (P50750 whole entry): as the sequence (P50750 whole entry L156F) above, with F156L counted along it
Sequence of CDK9/CyclinT1 protein (O60563 whole entry partner): as the sequence (O60563 whole entry partner) above

[14] = system: gastrointestinal stromal tumor GIST-T1; test: cells; settings: Homo sapiens, GISTT1, 72 h, read-out: GI50 GIST-T1
lymphoma cell WSU-DLCL2 [15] = test: cells; settings: Homo sapiens, WSUDLCL2, 72 h, read-out: GI50 WSU-DLCL2
[16] = system: cervical cancer cell HeLa; test: cells; settings: Homo sapiens, 72 h, read-out: GI50 HeLa
[17] = system: gastrointestinal stromal tumor GIST-T1; settings: read-out: GI50 GIST-T1; incubated for 72 hours, Cell Titer-Glo
[18] = system: cervical cancer cell HeLa; settings: read-out: GI50 HeLa; incubated for 72 hours, Cell Titer-Glo
lymphoma cell WSU-DLCL2 [19] = settings: read-out: GI50 WSU-DLCL2; incubated for 72 hours, Cell Titer-Glo
[20] = Homo sapiens, MOLM-13, Table 2, read-out: GI50 MOLM13
[21] = Homo sapiens, DLD-1, incubated for 72 hours
[22] = Homo sapiens, HCT-116, incubated for 72 hours
[23] = Homo sapiens, MOLM-13, Table 1, read-out: GI50 MOLM 13
[24] = incubated for 72 hours, Cell Titer-Glo

| GI50 [1, 20] [nM] | Structure (SMILES) | GI50 ([2]; Table 3) [nM] | GI50 ([3]; Homo sapiens, MV4-11, 72 h) [nM] | GI50 ([4]; Homo sapiens, MOLM-14) [nM] | GI50 HepG2 CDK9 KI C20-1 [5] [nM] | GI50 [6] [nM] | GI50 ([7]; Homo sapiens, K562) [nM] | GI50 [1, 23] [nM] | other results |
| --- | --- | --- | --- | --- | --- | --- | --- | --- | --- |
| 7.08 | COCCNC1CCC(Nc2nccc(-c3ccc4c(c3)C(C(C)C)(C(C)C)CNC4=O)n2)CC1 (stereo not drawn) [Compound 14, 4,4-diisopropyl-6-(2-(((1r,4r)-4-((2-methoxyethyl)amino)cyclohexyl)amino)pyrimidin-4-yl)-3,4-dihydroisoquinolin-1(2H)-one] |  | 17 |  |  | 8.26 | 26 |  | GI50 ([2]; Table 1): 23 nM; GI50 [8, 21]: 63 nM; GI50 [9, 22]: 12 nM |
|  | COCCN[C@H]1CC[C@H](Nc2nccc(-c3ccc4c(c3)C(C(C)C)(C(C)C)CNC4=O)n2)CC1 [Compound 14, 4,4-diisopropyl-6-(2-(((1r,4r)-4-((2-methoxyethyl)amino)cyclohexyl)amino)pyrimidin-4-yl)-3,4-dihydroisoquinolin-1(2H)-one] |  |  |  |  |  |  |  | IC50 [10]: 98.6 nM |
|  | CC1(C)CNC(=O)c2ccc(-c3ccnc(Nc4cccc(N5CCCNCC5)c4)n3)cc21 [Compound 35, 6-(2-((3-(1,4-homopiperazin-1-yl)phenyl)amino)pyrimidin-4-yl)-4,4-dimethyl-3,4-dihydroisoquinolin-1(2H)-one] | 87.4 | < 1 |  | 138.5 | 1.69 | 25 | < 1 | GI50 [11]: 33 nM; GI50 ([12]; Homo sapiens, COV434, 72 h): < 1 nM; IC50 (CDK9): 300 nM; GI50 [13]: 23 nM |
|  | CN1CCN(c2cccc(Nc3nccc(-c4ccc5c(c4)C(C)(C)CNC5=O)n3)c2)CC1 [Compound 37, 4,4-dimethyl-6-(2-((3-(4-methylpiperazin-1-yl)phenyl)amino)pyrimidin-4-yl)-3,4-dihydroisoquinolin-1(2H)-one] | 27.8 | < 1 | < 1 | 74.8 | 3.05 | 31 | < 1 | IC50 (CDK9): 49 nM |
| 0.845 | Cc1ccc(Nc2nccc(-c3ccc4c(c3)C(C)(C)CNC4=O)n2)cc1N1CCN(C)CC1 [Compound 82, 4,4-methyl-6-(2-((4-methyl-3-(4-methylpiperazin-1-yl)phenyl)amino)pyrimidin-4-yl)-dihydroisoquinolin-1(2H)-one] |  |  | 0.8 |  | 1.71 | 26 | < 1 | IC50 (CDK9/CyclinT1 protein): 2.6 nM; IC50 [10]: 105 nM |
|  | CCc1cnn2c(NCc3ccc[n+]([O-])c3)cc(N3CCCC[C@H]3CCO)nc12 [Dinaciclib, reference compound] |  | 22 | 18 |  |  | 53 | 11 | GI50 [11]: 4 nM; GI50 ([12]; Homo sapiens, COV434, 72 h): 8 nM; GI50 [14]: 15 nM; GI50 (lymphoma cell WSU-DLCL2 [15]): 13 nM; GI50 [13]: 5 nM; GI50 [8, 21]: 30 nM; GI50 [16]: 16.5 nM; GI50 [9, 22]: 15 nM |
|  | COC[C@@H](C)NC1CCC(Nc2cc(-c3csc(NCC4(C#N)CCOCC4)n3)c(Cl)cn2)CC1 (stereo partly drawn) [JSH-009, reference compound] |  |  |  |  |  |  |  | GI50 [12, 24]: 30 nM; IC50 (CDK9/CyclinT1 protein; read-out: CDK9/CyclinT1 Protein activity (IC50)): 29 nM; GI50 ([1]; Table 1, read-out: GI50 MOLM 13): 4 nM; GI50 [17]: 34 nM; GI50 [3, 24]: 6 nM; GI50 [4]: 4 nM; GI50 [7]: 9 nM; GI50 [18]: 18 nM; GI50 ([8]; incubated for 72 hours): 106 nM; GI50 (lymphoma cell WSU-DLCL2 [19]): 16 nM; GI50 ([9]; incubated for 72 hours): 23 nM |

| Structure (SMILES) | GI50 [1, 20] [nM] | GI50 ([2]; Table 3) [nM] | GI50 ([3]; Homo sapiens, MV4-11, 72 h) [nM] | GI50 ([4]; Homo sapiens, MOLM-14) [nM] | GI50 HepG2 CDK9 KI C20-1 [5] [nM] | GI50 [6] [nM] | GI50 ([7]; Homo sapiens, K562) [nM] | GI50 [1, 23] [nM] | other results |
| --- | --- | --- | --- | --- | --- | --- | --- | --- | --- |
| COc1cc(F)ccc1-c1cc(Nc2cc(CS(C)(=N)=O)ccn2)ncc1F (stereo not drawn) [BAY1251152, reference compound] | 38 | 36.1 | 27 | 40 | >1000 | 1190 |  |  | drug resistance on the drug resistant strain of liver cancer cell HepG2 ([5]; result in words): obvious drug resistance |
